Consider 9 compounds from US12115158B2, “Survivin-targeting anti-tumor agents and uses thereof” (Indiana University Research and Technology Corporation, priority 2020, dated 2024).

For data set [1], the system named is PC-3 cells. The experiment in a line: Apoptosis assay (Annexin V flow cytometry). The data set is classed as cell-based, human. The note with it: 3 μM. Here is the method:
(§1) Survivin Cycloheximide Half-Life Assay. The effect of LQZ-7-3 on survivin half-life was performed as previously described. Briefly, PC-3 or C4-2 cells were pretreated with 10 μmol/L cycloheximide for 1 hour followed by incubation with or without LQZ-7-3 10 uM for different times (0-6 hours). The cells were then harvested for Western Blot analysis for survivin. Apoptosis Assay. The apoptosis assay was performed as detailed in the Anenxin V-FITC kit from BioVision. Briefly, apoptosis was induced by treatment with LQZ-7-3 and cells were collected by centrifugation. Cells were resuspended in 500 ul of 1× binding buffer and 5 ul of annexin V-FITC and 5 ul of propidium iodide (50 ug/ml) was added to the cells. The cells were incubated at room temperature for 5 minutes in the dark then subjected to quantification by flow cytometry.

For data set [2], the system named is C4-2 cells. Briefly: Apoptosis assay (Annexin V flow cytometry). Type of data set: cell-based, human. The note with it: 3 μM. On the procedure:
as §1
In general terms: A flow cytometer gives signals particle by particle.

Data set [3] concerns the target T1, survivin (Homo sapiens, UniProt O15392). The experiment in a line: Proteasome inhibitors study (rescue of survivin loss). The data set is classed as cell-based. The arrangement: we examined survivin expression level in C4-2 and PC-3 cells following 7I treatments; endogenous in cells; host or cells: PC-3, C4-2. The conditions noted are these: PC-3 and C4-2 cells. Here is the method:
Proteasome Inhibitors Study. For the proteasome inhibitor rescue experiment, PC3 and C4-2 cells were seeded in 10-cm dishes at 8×10^5 cells/dish and cultured for 48 hours followed by replacement with fresh media containing DMSO control, 7 μmol/L MG132, or 70 nmol/L bortezomib and incubation for 2 hours. LQZ-7-3 was then added to the culture to final concentrations of 10 uM respectively and incubated for additional 24 hours. The cells were then harvested used for Western blot analysis of survivin.
To determine if 7I-induced survivin degradation occurs in proteasome, we performed a rescue experiment by pre-treating cells using proteasome inhibitors MG132 and bortezomib for 1 hr prior to 7I treatment. […] Thus, 7I likely induces survivin degradation via proteasome. 7I induces apoptosis. It has been shown previously that depleting survivin or inhibiting survivin using dominant negative forms of survivin cause spontaneous apoptosis in cancer cells (ref) and that the parent compound LQZ-7 also induces apoptosis. We next tested if 7I would induce apoptosis by inhibiting survivin. For this purpose, we first performed Western blot analysis of cleaved caspase 3 in C4-2 and PC-3 cells following 7I treatments. […] We next determined if 7I is active in suppressing tumor growth in vivo using a PC-3 xenograft model. […]

Data set [4] relates to PC-3 cells. The experiment in a line: Methylene blue survival assay. Type of data set: cell-based. The conditions noted are these: Homo sapiens, 72-hr treatment. Here is the method:
(§2) Methylene blue survival assay. Prostate cancer cells were seeded 2000-3500 per well (cell line dependent) and treated with LQZ-7-3 for 72 hours. After 72 hours, media was then removed and cells were fixed with methanol for 30 minutes and subsequently stained with 100 μL of 1% methylene blue (diluted in 10 mM borate buffer) for 1 hour. The cells were then washed 3× with 10 mM borate buffer and then allowed to air dry for 30 minutes. 100 μL of 100% ethanol:0.1 M HCl (1:1) was added to each well to dissolve the methylene blue stain and absorbance was measured via spectrometry at […]. After normalization to DMSO controls, the percent viabilities were graphed and IC50 concentrations were determined using Prism.
(§3) LQZ-7I has enhanced cytotoxicity compared to the parent compound LQZ-7. These five newly synthesized LQZ-7 analogs were first tested for their cytotoxicity against prostate cancer cell lines C4-2 and PC-3 in comparison with their parent compound LQZ-7 using methylene blue assay. […] The other compounds performed worse with higher IC50 compared with LQZ-7.

For data set [5], the system named is C4-2 cells. The experiment in a line: Methylene blue survival assay. The data set is classed as cell-based. The note with it: Homo sapiens, 72-hr treatment. On the procedure: as §2, §3
The subject of another data set is PC-3 xenograft tumors. The experiment in a line: PC-3 xenograft model. Type of data set: in vivo, NSG male mice. On the procedure:
PC-3 Xenograft Model. For the in vivo efficacy study, 3×10^6 PC-3 cells in media were implanted in to the hind flanks of 6 week old NSG male mice. After the tumor volume reached approximately […] in volume, the mice were randomized in to two groups (5 mice/group). The mice were either given 200 uL vehicle (90% corn oil/10% DMSO) or LQZ-7-3 100 mg/kg vial oral gavage every other day for a total of ten treatments. Before each treatment mouse bodyweight and tumor volume by caliper was measured. At the end of the study mice were sacrificed, and tumors were extracted for western blot analysis and […] staining of survivin.

In a further data set the target is CIAP1 (Homo sapiens, UniProt Q13490). The experiment in a line: IAP family member degradation assay. The data set is classed as cell-based. The note with it: C4-2 and PC-3 cells, Western blot. Here is the method: (§4) Survivin mammalian two hybrid assay. […] Each condition was tested in triplicate. […] IAP family member degradation assay.
(§5) Selectivity of 7I. […] To ensure 7I is selective to survivin, we tested its effect on other members of the IAP family by taking advantage of its induction of target loss. For this purpose, we performed Western blot analysis to determine the expression level of other IAPs including XIAP, CIAP1, and CIAP2 in addition to survivin following 7I treatment of C4-2 and PC-3 cells. […] However, it had no effect on the expression of XIAP, CIAP1, and CIAP2. Thus, 7I may be selective to its intended target survivin. 7I induces survivin degradation in a proteasome-dependent manner. […] Because 7I inhibited survivin dimerization as shown above, we hypothesized that 7I will also induce survivin degradation. To test this hypothesis, we examined survivin expression level in C4-2 and PC-3 cells following 7I treatments. […] We next performed a cycloheximide-chase experiment following 7I treatment to determine the half-life of survivin. […] Thus, 7I induces survivin degradation in both cell lines.

The next data set concerns the target XIAP (Homo sapiens, UniProt P98170). The experiment in a line: IAP family member degradation assay. The data set is classed as cell-based. The conditions noted are these: C4-2 and PC-3 cells, Western blot. Here is the method: as §4, §5
(In general: A western blot detects proteins with antibodies after separation by electrophoresis.)

The next data set concerns the target CIAP2 (Homo sapiens, UniProt Q13489). The experiment in a line: IAP family member degradation assay. The data set is classed as cell-based. The conditions noted are these: C4-2 and PC-3 cells, Western blot. Here is the method:
as §4, §5

Data set [6] relates to stable C4-2 cells over expressing survivin. Briefly: Methylene blue assay in survivin overexpression cells. Type of data set: cell-based. The conditions noted are these: Homo sapiens; stable C4-2 clone, HA-tagged survivin; read-out: IC50, survivin over-expression. On the procedure: as §2
(§6) Survivin overexpression decreases cellular sensitivity to 7I. To corroborate above findings and to further investigate 7I inhibition of cancer cell survival via survivin, we generated a stable C4-2 clone with overexpression of HA-tagged survivin (FIG. 13D) and tested the effect of survivin over-expression on 7I cytotoxicity. […] Thus, 7I likely works via inhibiting survivin.
(§7) LQZ-7F-1 Cytotoxicity in Survivin Overexpression Cells. To determine if survivin overexpressing cells have a decreased sensitivity to LQZ-7F-1, C4-2 survivin stable overexpressing cells were once again used in a cell cytotoxicity assay.

A further data set can be described thus: Solubility in corn oil. The data set is classed as physicochemical.
In another data set the test system is cleaved caspase 3. The experiment in a line: Western blot analysis of cleaved caspase 3. The data set is classed as cell-based, human. The note with it: C4-2 and PC-3 cells. An excerpt: To determine if 7I-induced survivin degradation occurs in proteasome, we performed a rescue experiment by pre-treating cells using proteasome inhibitors MG132 and bortezomib for 1 hr prior to 7I treatment. […] Thus, 7I likely induces survivin degradation via proteasome. 7I induces apoptosis. It has been shown previously that depleting survivin or inhibiting survivin using dominant negative forms of survivin cause spontaneous apoptosis in cancer cells (ref) and that the parent compound LQZ-7 also induces apoptosis. We next tested if 7I would induce apoptosis by inhibiting survivin. For this purpose, we first performed Western blot analysis of cleaved caspase 3 in C4-2 and PC-3 cells following 7I treatments. […] We also performed annexin V staining of C4-2 and PC-3 cells as another indicator of apoptosis following 7I treatments. […] 7I inhibits growth of PC-3 xenograft tumors by inhibiting survivin. We next determined if 7I is active in suppressing tumor growth in vivo using a PC-3 xenograft model. […] The xenograft tumors in the 7I-treatment group trended to be smaller and pale in color than the control group (FIG. 16C-D). Thus, 7I may be effective in inhibiting tumor growth with little toxicity.
Apoptosis Studies. To determine if LQZ-7F-1 also induces apoptosis of cancer cells Flow Cytometry with Annexin V staining was performed in coordination with the Flow Cytometry Core. […]

The next data set has as its target survivin dimerization (Homo sapiens, UniProt O15392). The experiment in a line: Survivin mammalian two hybrid assay (SEAP reporter, Du145 cells). Type of data set: cell-based. The conditions noted are these: 24 hours treatment.
Data set [7] deals with T1, survivin. The experiment in a line: Survivin level by Western blot in prostate cancer cells. The note with it: C4-2 and PC-3 cells.
Protocol: IAP family member degradation assay. For this experiment C4-2 or PC-3 cells were plated in a 10 cm dish at 1×10^6 cells per dish. 24 hours later the media was changed and cells were treated with DMO or LQZ-7-3. After 48 hours the cells were harvested, washed in PBS, and IAP family members level were evaluated using specific antibodies and Western Blotting.
For a further data set, the system named is C4-2 vector cells. The experiment in a line: Methylene blue assay in vector control cells. Type of data set: cell-based. The note with it: Homo sapiens; C4-2 vector control; read-out: IC50, vector-transfect control clone. Here is the method: as §2, §6, §7
The subject of data set [8] is p53-large T antigen dimerization. The experiment in a line: Mammalian two hybrid assay, specificity control. The note with it: same two hybrid assay.
Protocol: (§8) Survivin mammalian two hybrid assay. The mammalian two hybrid assay was performed utilizing the ClonTech Matchmaker Mammalian Two Hybrid Assay kit [13]. Briefly, the coding region (˜400 bp) of survivin was cloned in to two different plasmids, the pM plasmid containing the GAL4-DNA Binding Domain and the pVP16 plasmid containing an activation domain. […] These two plasmids (0.45 ug/well) along with the pGSEAP reporter plasmid (0.09 ug/well) and firefly luciferase plasmid (30 ng/well) were co-transfected in to 1×10^5 Du145 cells per well in a 12 well plate. Each condition was tested in triplicate. […] SEAP was detected utilizing the Takara ClonTech SEAP Great Escape chemiluminescence assay kit 2.0 and cells were lysed and luciferase was measured to control for transfection efficiency.
The subject of the next data set is PC-3. The note with it: MTT assay; data from the previous study [12]; cited from earlier work.
Setting [9] is: read-out: IC50 against PC-3 cells.
Setting [10] is: read-out: IC50 against C4-2 cells.

“Also recorded” adds a separate entry of the source. Read-outs that look alike come from different tables or passages of the source.

T1 sequence (O15392 whole entry): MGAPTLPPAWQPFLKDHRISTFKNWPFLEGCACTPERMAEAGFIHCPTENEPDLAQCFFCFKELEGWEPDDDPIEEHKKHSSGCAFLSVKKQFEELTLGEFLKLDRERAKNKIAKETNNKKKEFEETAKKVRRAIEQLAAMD
Chain of survivin dimerization (O15392 whole entry): as above
Chain of CIAP2 (Q13489 whole entry): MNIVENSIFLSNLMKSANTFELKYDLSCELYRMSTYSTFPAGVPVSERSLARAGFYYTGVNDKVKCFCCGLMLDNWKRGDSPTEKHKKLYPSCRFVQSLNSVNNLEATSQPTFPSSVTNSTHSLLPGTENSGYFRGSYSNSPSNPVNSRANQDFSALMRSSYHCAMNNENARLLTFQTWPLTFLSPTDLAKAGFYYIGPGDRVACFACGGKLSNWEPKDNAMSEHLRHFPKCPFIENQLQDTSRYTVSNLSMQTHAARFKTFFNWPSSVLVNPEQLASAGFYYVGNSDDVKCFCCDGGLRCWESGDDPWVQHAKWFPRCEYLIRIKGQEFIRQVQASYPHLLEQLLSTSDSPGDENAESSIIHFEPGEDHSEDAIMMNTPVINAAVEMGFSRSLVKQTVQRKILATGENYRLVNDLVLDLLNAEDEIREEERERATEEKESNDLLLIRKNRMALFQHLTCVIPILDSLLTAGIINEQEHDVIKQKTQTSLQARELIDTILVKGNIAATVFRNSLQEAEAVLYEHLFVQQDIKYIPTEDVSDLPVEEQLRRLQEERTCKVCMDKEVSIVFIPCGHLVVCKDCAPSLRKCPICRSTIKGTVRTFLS
Chain of XIAP (P98170 whole entry): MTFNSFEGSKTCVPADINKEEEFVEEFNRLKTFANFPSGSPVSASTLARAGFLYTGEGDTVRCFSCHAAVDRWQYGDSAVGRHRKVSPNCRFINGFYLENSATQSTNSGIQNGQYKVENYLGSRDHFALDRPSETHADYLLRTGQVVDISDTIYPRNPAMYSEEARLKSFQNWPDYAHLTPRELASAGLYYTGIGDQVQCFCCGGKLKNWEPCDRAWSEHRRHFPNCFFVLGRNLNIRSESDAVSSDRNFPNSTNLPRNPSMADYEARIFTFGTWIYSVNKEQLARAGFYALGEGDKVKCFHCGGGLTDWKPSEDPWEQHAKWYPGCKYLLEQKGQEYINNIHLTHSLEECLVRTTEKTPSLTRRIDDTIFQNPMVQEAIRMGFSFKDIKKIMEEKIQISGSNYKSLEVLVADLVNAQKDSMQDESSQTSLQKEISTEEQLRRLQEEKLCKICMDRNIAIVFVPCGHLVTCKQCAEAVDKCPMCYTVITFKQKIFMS
Chain of CIAP1 (Q13490 whole entry): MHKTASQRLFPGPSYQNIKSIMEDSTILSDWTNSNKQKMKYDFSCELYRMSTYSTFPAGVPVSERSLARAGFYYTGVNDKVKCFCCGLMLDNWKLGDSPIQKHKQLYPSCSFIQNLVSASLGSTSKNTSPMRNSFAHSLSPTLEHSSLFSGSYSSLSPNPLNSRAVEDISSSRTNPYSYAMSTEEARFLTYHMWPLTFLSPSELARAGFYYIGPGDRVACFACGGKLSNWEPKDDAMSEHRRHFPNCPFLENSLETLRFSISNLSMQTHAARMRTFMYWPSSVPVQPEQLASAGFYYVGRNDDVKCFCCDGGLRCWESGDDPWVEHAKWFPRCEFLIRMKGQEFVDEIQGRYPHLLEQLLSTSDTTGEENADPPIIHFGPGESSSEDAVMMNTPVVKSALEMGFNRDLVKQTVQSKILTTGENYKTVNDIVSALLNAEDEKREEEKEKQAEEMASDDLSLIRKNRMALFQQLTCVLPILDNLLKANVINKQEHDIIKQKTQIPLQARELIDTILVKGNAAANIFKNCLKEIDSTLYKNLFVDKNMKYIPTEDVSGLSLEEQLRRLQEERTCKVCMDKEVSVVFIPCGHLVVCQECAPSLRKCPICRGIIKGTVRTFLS
Protocol for survivin dimerization: as §8
Dimerization of survivin activates the expression of Secreted Embryonic Alkaline Phosphatase (SEAP) reporter gene, which can be monitored.

What is called IC50 is the concentration that inhibits the measured activity by half. For the compound `Fc1ccc(Nc2nc3ccccc3nc2Nc2ccc(F)cc2)cc1` [LQZ-7I, N^2,N^3-bis(4-fluorophenyl)quinoxaline-2,3-diamine], the “apoptosis (annexin V staining)” value with PC-3 cells [1] was about 39%; with C4-2 cells [2], about 48%. In addition, on survivin [3], the “compound-induced survivin loss after pretreatment with proteasome inhibitors MG132 and bortezomib” value was “significantly reversed”. Further, the IC50 in the data set on PC-3 cells [4] (read-out: IC50 (μm) PC-3) is 4.8 µM; with PC-3 cells [4] (setting [9]) it was 4.8 µM; in the data set with C4-2 cells [5] (read-out: IC50 (μm) C4-2), 3.1 µM; in the data set with C4-2 cells [5] (setting [10]), 3.1 µM; in [6], about 7 µM; in the data set with C4-2 vector cells, about 2000 nM. Moreover, the body weight entry in the data set with PC-3 xenograft tumors (100 mg/kg oral gavage) is on record as “lacking changes”. Besides, the “wet weight of major organs at the end of the study” value with PC-3 xenograft tumors (100 mg/kg oral gavage) is “lacking changes”. For the same compound, in the data set on PC-3 xenograft tumors (100 mg/kg oral gavage every other day, ten treatments), the tumor growth result is on record as “significantly suppressed”. Also, the “survivin expression in xenograft tumors” value with PC-3 xenograft tumors (Western blot and immunofluorescence staining, treatment vs control group) is “drastically reduced”. In addition, on CIAP1, the “expression of CIAP1” value was “no effect”. In addition, the “expression of XIAP” value on XIAP was “no effect”. The “expression of CIAP2” value at CIAP2 is “no effect”. Besides, in the data set “Solubility in corn oil”, the “solubility in corn oil” value is given as “soluble”. For the same compound, the “cleaved caspase 3 levels” value in the data set on cleaved caspase 3 is “induced cleavage of caspase 3 in a dose dependent manner”. Besides, the “SEAP reporter expression / survivin dimerization” value at survivin dimerization is on record as “significantly decreased; also recorded: significantly inhibited”. Also, the “survivin expression level after treatment” value at survivin [7] is on record as “reduced; also recorded: time-dependent survivin loss”. Further, in data set [8], the “p53-large T antigen dimerization” value is listed as “no effect”.
With `Cc1ccc(-c2ccc(/C=N/Nc3nc4nonc4nc3Nc3cccc(Br)c3)o2)cc1Cl` [LQZ-7B], the IC50 in the data set on PC-3 was 3.3 ± 0.2 µM.
Turning to `O=C(Nc1nc2ccccc2nc1Nc1ccc(F)cc1)c1ccc2c(c1)OCO2` [LQZ-7G, N-(3-((4-fluorophenyl)amino)quinoxalin-2-yl)benzo[d][1,3]dioxole-5-carboxamide], the IC50 with PC-3 cells [4] (read-out: IC50 (μm) PC-3) is 20.7 µM; in the data set with C4-2 cells [5] (read-out: IC50 (μm) C4-2), 14.3 µM.
Take `Cc1cccc(Nc2nc3nonc3nc2N/N=C/c2ccc(-c3ccc(Cl)c([N+](=O)[O-])c3)o2)c1C` [LQZ-7A]: the half-inhibitory concentration (IC50) in the data set with PC-3 was 7.2 ± 2.7 µM.
As to `CCOC(=O)c1ccc(Nc2nc3nonc3nc2N/N=C/c2c[nH]nc2-c2ccccc2)cc1` [LQZ-7C], the IC50 with PC-3 was 3.5 µM.
Regarding `Cc1cccc(Nc2nc3nonc3nc2N/N=C/c2ccc(-c3cccc(C(=O)O)c3)o2)c1C` [LQZ-7], the IC50 in the data set on PC-3 cells [4] (read-out: IC50 (μm) PC-3) stood at 8.1 µM; in the data set with PC-3 cells [4] (setting [9]), 8.1 µM; with C4-2 cells [5] (read-out: IC50 (μm) C4-2), 9.1 µM; with C4-2 cells [5] (setting [10]) it was 9.1 µM. The “p53-large T antigen dimerization” value in data set [8] is on record as “no effect”.
Consider `O=C(Nc1nc2ccccc2nc1Nc1ccc(F)cc1)c1ccccc1` [LQZ-7H, N-(3-((4-fluorophenyl)amino)quinoxalin-2-yl)benzamide], for which the IC50 was 19.7 µM with PC-3 cells [4] (read-out: IC50 (μm) PC-3) and 12.7 µM in the data set on C4-2 cells [5] (read-out: IC50 (μm) C4-2).
With `Cc1cccc(Nc2nc3nonc3nc2N/N=C/c2cc3c(cc2[N+](=O)[O-])OCO3)c1C` [LQZ-7D], the IC50 in the data set on PC-3 is 2.6 ± 0.3 µM.
On to `Cc1cccc(Nc2nc3ccccc3nc2Nc2cccc(C)c2C)c1C` [LQZ-7J, N^2,N^3-bis(2,3-dimethylphenyl)quinoxaline-2,3-diamine], for which the half-inhibitory concentration (IC50) stood at 24.8 µM in the data set with PC-3 cells [4] (read-out: IC50 (μm) PC-3) and 17.6 µM in the data set with C4-2 cells [5] (read-out: IC50 (μm) C4-2).
